Measurements published in patent US20040266795A1 (priority 2003, published 2004).
Like-named read-outs stand apart in the source and are kept apart here.

Columns and labels:
[1] = Stability studies of the prepared FMC (storage, HPLC); type: physicochemical
Procedure: The purity of famciclovir was analyzed by HPLC under the following conditions: […]

[2] = below 85% relative humidity; cited from earlier work
[3] = cited from earlier work
[4] = 1 month, 25° C., 75% relative humidity
[5] = 1 month, 40° C., 75% relative humidity
[6] = 1 month, 55° C., 75% relative humidity
[7] = 2 month, 25° C., 75% relative humidity
[8] = 2 month, 40° C., 75% relative humidity
[9] = 2 month, 55° C., 75% relative humidity
[10] = 3 months, 25° C., 75% relative humidity
[11] = 3 months, 40° C., 75% relative humidity
[12] = 3 months, 55° C., 75% relative humidity
[13] = 5 months, 25° C., 75% relative humidity
[14] = 6 months, 25° C., 75% relative humidity
[15] = 6 months, 40° C., 75% relative humidity
[16] = 6 months, 55° C., 75% relative humidity

2-[2-(2-amino-9H-purin-9-yl)ethyl]-1,3-propane diacetate [famciclovir]
not hydroscopic: hygroscopicity [2]
White: Appear. [1, 8] | Appear. [1, 9] | Appear. [1, 11] | Appear. [1, 12] | Appear. [1, 13]
0.07%: Total, % [1, 8] | Any, % [1, 9] | MH-FMC RRT 0.51 (%) [1, 9] | Total, % [1, 11] | Total, % [1, 12]
0.02%: RRT 0.87 (%) [1, 13]
1.09: partition coefficient P ([3]; octanol/water (pH 4.8))
0.08%: Total, % [1, 9]
0.06%: Any, % [1, 8] | MH-FMC RRT 0.51 (%) [1, 8] | Any, % [1, 11] | MH-FMC RRT 0.51 (%) [1, 11] | Any, % [1, 12] | MH-FMC RRT 0.51 (%) [1, 12] | Any, % [1, 13] | MH-FMC RRT 0.51 (%) [1, 13] | Any, % [1, 14] | MH-FMC RRT 0.51 (%) [1, 14] | Any, % [1, 15] | MH-FMC RRT 0.51 (%) [1, 15] | Any, % [1, 16] | MH-FMC RRT 0.51 (%) [1, 16]
0.01%: RRT 0.89 (%) [1, 8] | RRT 0.89 (%) [1, 9] | RRT 0.89 (%) [1, 11] | RRT 0.89 (%) [1, 12] | RRT 0.80 (%) [1, 13] | RRT 0.89 (%) [1, 13] | RRT 1.10 (%) [1, 13] | RRT 1.27 (%) [1, 13] | RRT 1.35 (%) [1, 13] | RRT 1.74 (%) [1, 13] | RRT 0.80 (%) [1, 14] | RRT 0.87 (%) [1, 14] | RRT 1.27 (%) [1, 14] | RRT 0.80 (%) [1, 15] | RRT 0.87 (%) [1, 15] | RRT 1.27 (%) [1, 15] | RRT 0.80 (%) [1, 16] | RRT 0.87 (%) [1, 16] | RRT 1.27 (%) [1, 16]
0.14%: Total, % [1, 13]
2.08: partition coefficient P ([3]; octanol/phosphate buffer (pH 7.4))
0.09%: Total, % [1, 14] | Total, % [1, 15] | Total, % [1, 16]
<0.01%: RRT 0.80 (%) [1, 8] | RRT 0.87 (%) [1, 8] | RRT 1.10 (%) [1, 8] | RRT 1.27 (%) [1, 8] | RRT 1.35 (%) [1, 8] | RRT 1.74 (%) [1, 8] | RRT 0.80 (%) [1, 9] | RRT 0.87 (%) [1, 9] | RRT 1.10 (%) [1, 9] | RRT 1.27 (%) [1, 9] | RRT 1.35 (%) [1, 9] | RRT 1.74 (%) [1, 9] | RRT 0.80 (%) [1, 11] | RRT 0.87 (%) [1, 11] | RRT 1.10 (%) [1, 11] | RRT 1.27 (%) [1, 11] | RRT 1.35 (%) [1, 11] | RRT 1.74 (%) [1, 11] | RRT 0.80 (%) [1, 12] | RRT 0.87 (%) [1, 12] | RRT 1.10 (%) [1, 12] | RRT 1.27 (%) [1, 12] | RRT 1.35 (%) [1, 12] | RRT 1.74 (%) [1, 12]
0.00%: Any, % [1, 4] | Total, % [1, 4] | Any, % [1, 5] | Total, % [1, 5] | Any, % [1, 6] | Total, % [1, 6] | Any, % [1, 7] | Total, % [1, 7] | Any, % [1, 10] | Total, % [1, 10] | Any, % ([1]; start) | Total, % ([1]; start)
does not increase: monohydroxy impurity content upon storage ([1]; at least 6 months at 25° C., 40° C. or 55° C. and 75% relative humidity)
